Literature values, collected in patent publication US5639785A, “Methods for the treatment of baldness and gray hair using isoflavonoid derivatives” (priority 1995, dated 1997).
Where two headings read alike, the source gives them in different places.

What was measured:
[1] = tested on: patients with hair loss; conditions: after four months of treatment
[2] = tested on: Du-145 human prostate cancer cell line
[3] = tested on: LNCaP human prostate cancer cell line
[4] = target: r2 r2 ADH isozyme (alcohol dehydrogenase class I) (Homo sapiens, UniProt P00326, I350V/R272Q); conditions: competitive with respect to ethanol, uncompetitive with respect to NAD
[5] = tested on: alcohol dehydrogenase (ADH) class I isozymes
[6] = target: r1 r1 ADH isozyme (alcohol dehydrogenase class I) (Homo sapiens, UniProt P00326); conditions: competitive with respect to ethanol, uncompetitive with respect to NAD
[7] = tested on: HL60 human leukemia cells
[8] = tested on: Syrian Golden hamsters
[9] = target: T1, aldehyde dehydrogenase (ALDH) II and II of human mitochondria (Homo sapiens, UniProt P05091)
T1 sequence (P05091 18-517): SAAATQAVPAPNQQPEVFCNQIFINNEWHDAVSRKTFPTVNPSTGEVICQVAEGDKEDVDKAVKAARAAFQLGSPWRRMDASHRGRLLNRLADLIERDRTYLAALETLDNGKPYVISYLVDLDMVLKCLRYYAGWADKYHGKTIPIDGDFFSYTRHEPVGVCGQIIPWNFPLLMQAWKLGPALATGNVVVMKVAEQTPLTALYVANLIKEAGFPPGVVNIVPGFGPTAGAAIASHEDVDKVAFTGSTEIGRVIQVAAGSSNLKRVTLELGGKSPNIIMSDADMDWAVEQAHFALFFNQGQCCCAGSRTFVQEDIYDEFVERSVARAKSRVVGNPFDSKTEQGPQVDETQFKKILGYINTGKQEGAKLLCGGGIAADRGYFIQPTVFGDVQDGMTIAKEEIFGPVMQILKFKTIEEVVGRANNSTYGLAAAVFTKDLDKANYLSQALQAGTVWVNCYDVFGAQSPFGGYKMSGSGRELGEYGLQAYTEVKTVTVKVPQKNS

r1 r1 ADH isozyme (alcohol dehydrogenase class I), sequence (P00326 2-375 limits assumed): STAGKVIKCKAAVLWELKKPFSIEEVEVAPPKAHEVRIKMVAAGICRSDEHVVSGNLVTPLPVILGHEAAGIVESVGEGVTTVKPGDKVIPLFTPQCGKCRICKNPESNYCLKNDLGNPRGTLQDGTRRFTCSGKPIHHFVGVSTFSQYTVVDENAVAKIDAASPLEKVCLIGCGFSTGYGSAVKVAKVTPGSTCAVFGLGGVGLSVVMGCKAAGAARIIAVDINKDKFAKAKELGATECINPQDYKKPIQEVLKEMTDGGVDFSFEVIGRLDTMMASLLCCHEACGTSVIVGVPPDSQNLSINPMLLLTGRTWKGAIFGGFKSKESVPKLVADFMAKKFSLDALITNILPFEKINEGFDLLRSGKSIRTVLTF
r2 r2 ADH isozyme (alcohol dehydrogenase class I), sequence (P00326 2-375 R272Q/I350V limits assumed): as the sequence (P00326 2-375 limits assumed) above, with R271Q, I349V counted along it

For `Nc1cc(N2CCCCC2)nc(N)[n+]1[O-]` [Minoxidil], the “patients who achieve minimal regrowth of hair” value [1] is listed as “approximately 25%”.

For `COc1ccc(-c2coc3cc(O)cc(O)c3c2=O)cc1` [biochanin A], the “inhibition of serum and epidermal growth factor-stimulated growth” value [2] is listed as “inhibited” and the “inhibition of serum and epidermal growth factor-stimulated growth” value [3] is listed as “inhibited”.

For `O=c1c(-c2ccc(O)cc2)coc2cc(O)ccc12` [daidzein, 7-hydroxy-3-(4-hydroxyphenyl)-4-H-1-benzopyranyl-4-one], the “inhibition of serum and epidermal growth factor-stimulated growth” value [2] is given as “not”, the Ki [4] is given as ~1000 nM and the “inhibition of serum and epidermal growth factor-stimulated growth” value [3] is given as “not”. For the same compound, the “inhibition of ADH” value [5] was “reversible inhibitors”, the Ki [6] was ~1000 nM and the “concentration that inhibited the growth of HL60 cells” value [7] was “greater than 10 μg/ml”. For the same compound, the “free choice ethanol intake” value ([8]; Syrian Golden hamsters) was “suppressed” and the “effect on body weight, water or food intake” value ([8]; hamster, in vivo) was “did not significantly affect”.

In the case of `O=c1c(-c2ccc(O)cc2)coc2cc(O[C@@H]3O[C@H](CO)[C@@H](O)[C@H](O)[C@H]3O)ccc12` [daidzin], the “inhibition of ADH” value [5] is listed as “did not inhibit”, the “effect on body weight, water or food intake” value ([8]; Syrian Golden hamsters) is listed as “did not significantly affect” and the “free choice ethanol intake” value ([8]; Syrian Golden hamsters) is listed as “suppressed”. For the same compound, the “inhibition of ALDH” value [9] was “potent inhibitor”.

For `O=c1c(-c2ccc(O)cc2)coc2cc(O)cc(O)c12` [genistein], the “inhibition of serum and epidermal growth factor-stimulated growth” value [2] is listed as “inhibited”, the “inhibition of serum and epidermal growth factor-stimulated growth” value [3] is listed as “inhibited” and the “inhibition of ADH” value [5] is listed as “reversible inhibitors”.
